Target: Albumin (Homo sapiens, UniProt P02768)
Test: Binding constant against human serum albumin (HSA)

Sequence of Albumin (P02768 whole entry): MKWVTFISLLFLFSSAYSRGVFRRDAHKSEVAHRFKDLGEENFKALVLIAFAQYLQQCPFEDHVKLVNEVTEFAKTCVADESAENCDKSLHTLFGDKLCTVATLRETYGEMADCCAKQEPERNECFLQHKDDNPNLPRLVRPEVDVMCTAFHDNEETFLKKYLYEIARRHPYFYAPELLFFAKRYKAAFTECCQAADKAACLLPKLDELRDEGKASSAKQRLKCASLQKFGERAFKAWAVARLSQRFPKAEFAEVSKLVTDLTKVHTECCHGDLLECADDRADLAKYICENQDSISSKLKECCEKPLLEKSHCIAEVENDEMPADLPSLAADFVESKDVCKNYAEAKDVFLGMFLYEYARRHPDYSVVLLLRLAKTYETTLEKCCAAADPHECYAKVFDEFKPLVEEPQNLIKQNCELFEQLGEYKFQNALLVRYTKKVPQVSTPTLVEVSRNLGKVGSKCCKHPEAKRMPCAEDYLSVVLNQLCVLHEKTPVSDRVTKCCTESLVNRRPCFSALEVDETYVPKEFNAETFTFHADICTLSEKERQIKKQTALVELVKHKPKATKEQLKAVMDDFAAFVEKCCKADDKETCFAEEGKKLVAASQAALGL

Structure (SMILES)	Log K'
CCCCNc1ccc(C(=O)OCCN(C)C)cc1 [TETRACAINE]	0.32
Clc1ccccc1C(c1ccccc1)(c1ccccc1)n1ccnc1 [CLOTRIMAZOLE]	1.34
C[C@]12CCC(=O)C=C1CC[C@@H]1[C@@H]2[C@@H](O)C[C@@]2(C)[C@H]1CC[C@]2(O)C(=O)CO [HYDROCORTISONE]	0.4
CNS(=O)(=O)Cc1ccc2[nH]cc(CCN(C)C)c2c1	0.05
COc1cc2nc(N3CCN(C(=O)c4ccco4)CC3)nc(N)c2cc1OC [PRAZOSIN]	0.06
CN(Cc1cnc2nc(N)nc(N)c2n1)c1ccc(C(=O)N[C@@H](CCC(=O)O)C(=O)O)cc1 [METHOTREXATE]	0.77
CO/N=C(\C(=O)N[C@@H]1C(=O)N2C(C(=O)O)=C(COC(N)=O)CS[C@H]12)c1ccco1 [CEFUROXIME]	1.33
CC(C)NCC(O)COc1cccc2ccccc12 (centres undefined) [PROPRANOLOL]	0.28
COc1cc2nc(N3CCN(C(=O)C4CCCO4)CC3)nc(N)c2cc1OC (centres undefined) [TERAZOSIN]	0.16
O=C(CCCN1CC=C(n2c(=O)[nH]c3ccccc32)CC1)c1ccc(F)cc1 [DROPERIDOL]	0.43
C=CCOc1ccccc1OCC(O)CNC(C)C (centres undefined) [OXPRENOLOL]	0.15
C[C@H]1c2cccc(O)c2C(=O)C2=C(O)[C@]3(O)C(=O)C(C(N)=O)=C(O)[C@@H](N(C)C)[C@@H]3[C@@H](O)[C@@H]21.O [DOXYCYCLINE]	0.01
CC(CCc1ccccc1)NCC(O)c1ccc(O)c(C(N)=O)c1 (centres undefined) [LABETALOL]	0.14
CN(C)CCCN1c2ccccc2Sc2ccccc21 [PROMAZINE]	0.92
CC1(C)S[C@@H]2[C@H](NC(=O)COc3ccccc3)C(=O)N2[C@H]1C(=O)O [PENICILLIN V]	0.69
CC(=O)Oc1ccccc1C(=O)O [ASPIRIN]	1.39
COc1ccc(Cl)cc1C(=O)NCCc1ccc(S(=O)(=O)NC(=O)NC2CCCCC2)cc1 [GLYBURIDE]	0.68
CN(C)[C@@H]1C(O)=C(C(N)=O)C(=O)[C@@]2(O)C(O)=C3C(=O)c4c(O)cccc4[C@@](C)(O)[C@H]3C[C@@H]12 [TETRACYCLINE]	0.08
CO[C@@H]1[C@@H](OC(N)=O)[C@@H](O)[C@H](Oc2ccc3c(O)c(NC(=O)c4ccc(O)c(CC=C(C)C)c4)c(=O)oc3c2C)OC1(C)C [NOVOBIOCIN]	0.35
CCN(CC)CCOC(=O)c1ccc(N)cc1 [PROCAINE]	0.19
CC(=O)O[C@H]1C[C@@]2(C)[C@@H](C[C@@H](O)[C@H]3[C@@]4(C)CC[C@@H](O)[C@@H](C)[C@@H]4CC[C@@]32C)/C1=C(\CCC=C(C)C)C(=O)O [FUSIDIC ACID]	0.33
Nc1nnc(-c2cccc(Cl)c2Cl)c(N)n1 [LAMOTRIGINE]	0.13
C[C@H]1COc2c(N3CCN(C)CC3)c(F)cc3c(=O)c(C(=O)O)cn1c23.C[C@H]1COc2c(N3CCN(C)CC3)c(F)cc3c(=O)c(C(=O)O)cn1c23.O [LEVOFLOXACIN]	0.14
Nc1nc(=O)[nH]cc1F [FLUCYTOSINE]	1.11
C[C@H]1O[C@@H](O[C@H]2[C@@H](O)C[C@H](O[C@H]3[C@@H](O)C[C@H](O[C@H]4CC[C@@]5(C)[C@H](CC[C@@H]6[C@@H]5CC[C@]5(C)[C@@H](C7=CC(=O)OC7)CC[C@]65O)C4)O[C@@H]3C)O[C@@H]2C)C[C@H](O)[C@@H]1O [DIGITOXIN]	0.13

Structure (SMILES)	Log K'
C=C[C@H]1C[N@@]2CC[C@H]1C[C@H]2[C@H](O)c1ccnc2ccc(OC)cc12 [QUININE]	0.49
C[C@]12CC[C@H]3[C@@H](CCC4=CC(=O)CC[C@@]43C)[C@@H]1CC[C@@H]2O [TESTOSTERONE]	0.74
CC(=O)[C@H]1CC[C@H]2[C@@H]3CCC4=CC(=O)CC[C@]4(C)[C@H]3CC[C@]12C [PROGESTERONE]	0.59
N[C@@H](Cc1c[nH]c2ccccc12)C(=O)O [TRYPTOPHAN]	0.78
CNCCCN1c2ccccc2CCc2ccccc21 [DESIPRAMINE]	0.61
Cc1nccn1CC1CCc2c(c3ccccc3n2C)C1=O (centres undefined) [ONDANSETRON]	0.37
CC(=O)Nc1ccc(O)cc1 [ACETAMINOPHEN]	0.81
CNC(=C[N+](=O)[O-])NCCSCc1ccc(CN(C)C)o1 [RANITIDINE]	0.1
C[C@]12CC[C@@H]3c4ccc(O)cc4CC[C@H]3[C@@H]1CC[C@@H]2O [ESTRADIOL]	0.68
CC(=O)N1CCN(c2ccc(OC[C@H]3CO[C@](Cn4ccnc4)(c4ccc(Cl)cc4Cl)O3)cc2)CC1 [KETOCONAZOLE]	0.84
CC[C@@]1(O)C(=O)OCc2c1cc1n(c2=O)Cc2cc3ccccc3nc2-1 [CAMPTOTHECIN]	0.08
Cc1ccc(S(=O)(=O)NC(=O)NN2CCCCCC2)cc1 [TOLAZAMIDE]	0.42
CC(C)NCC(O)COc1cccc2[nH]ccc12 (centres undefined) [PINDOLOL]	0.13
CC(C)(C)NCC(O)COc1cccc2c1CC(O)C(O)C2 (centres undefined) [NADOLOL]	0.4
CCCCC1C(=O)N(c2ccccc2)N(c2ccc(O)cc2)C1=O (centres undefined) [OXYPHENBUTAZONE ANHYDROUS]	0.02
CN(C)[C@@H]1C(O)=C(C(N)=O)C(=O)[C@@]2(O)C(O)=C3C(=O)c4c(O)cccc4C[C@H]3C[C@@H]12 [SANCYCLINE]	0.21
CCn1cc(C(=O)O)c(=O)c2cc(F)c(N3CCNCC3)cc21 [NORFLOXACIN]	0.14
CC(NC(C)(C)C)C(=O)c1cccc(Cl)c1 (centres undefined) [BUPROPION]	0.05
Cc1cc(=O)n(-c2ccccc2)n1C [ANTIPYRINE]	0.69
CCOC(=O)C(C)(C)Oc1ccc(Cl)cc1 [CLOFIBRATE]	0.27
NS(=O)(=O)c1cc2c(cc1Cl)NCNS2(=O)=O [HYDROCHLOROTHIAZIDE]	0.42
C[C@]12C=CC(=O)C=C1CC[C@@H]1[C@@H]2[C@@H](O)C[C@@]2(C)[C@H]1CC[C@]2(O)C(=O)CO [PREDNISOLONE]	0.4
CCCNC(=O)NS(=O)(=O)c1ccc(Cl)cc1 [CHLORPROPAMIDE]	0.44
CC(C)(C)NC[C@H](O)COc1nsnc1N1CCOCC1 [TIMOLOL]	0.33
CC1(C)S[C@@H]2[C@H](NC(=O)[C@H](N)c3ccc(O)cc3)C(=O)N2[C@H]1C(=O)O [AMOXICILLIN]	1.21

Structure (SMILES)	Log K'
CC(C)NCC(O)c1ccc(NS(C)(=O)=O)cc1 (centres undefined) [SOTALOL]	0.44
C=C[C@H]1C[N@@]2CC[C@H]1C[C@@H]2[C@@H](O)c1ccnc2ccc(OC)cc12 [QUINIDINE]	0.44
C=CCc1ccccc1OCC(O)CNC(C)C (centres undefined) [ALPRENOLOL]	0.04
CO/N=C(\C(=O)N[C@@H]1C(=O)N2C(C(=O)OC(C)OC(C)=O)=C(COC(N)=O)CS[C@H]12)c1ccco1 (some centres undefined) [CEFUROXIME AXETIL]	0.56
Cn1c(=O)c2c(ncn2C)n(C)c1=O [CAFFEINE]	0.92
CN/C(=N/CCSCc1nc[nH]c1C)NC#N [CIMETIDINE]	0.44
CCC(C)n1ncn(-c2ccc(N3CCN(c4ccc(OC[C@H]5CO[C@](Cn6cncn6)(c6ccc(Cl)cc6Cl)O5)cc4)CC3)cc2)c1=O (some centres undefined) [ITRACONAZOLE]	1.04
O=C(O)c1cc(=O)c2c(OCC(O)COc3cccc4oc(C(=O)O)cc(=O)c34)cccc2o1 [CROMOLYN]	1.07
CN(C/C=C/C#CC(C)(C)C)Cc1cccc2ccccc12 [TERBINAFINE]	1.17
CN(C)CCCN1c2ccccc2CCc2ccccc21 [IMIPRAMINE]	0.75
CN(C)c1cccc2c(S(=O)(=O)NCC(=O)O)cccc12 [DANSYLGLYCINE]	-0.26
CN(C)c1ccc(O)c2c1C[C@H]1C[C@H]3[C@H](N(C)C)C(O)=C(C(N)=O)C(=O)[C@@]3(O)C(O)=C1C2=O [MINOCYCLINE]	0.21
CCCCNc1cc(C(=O)O)cc(S(N)(=O)=O)c1Oc1ccccc1 [BUMETANIDE]	0.03
O=C(N[C@H](CO)[C@H](O)c1ccc([N+](=O)[O-])cc1)C(Cl)Cl [CHLORAMPHENICOL]	0.46
CCCC(=O)Nc1ccc(OCC(O)CNC(C)C)c(C(C)=O)c1 (centres undefined) [ACEBUTOLOL]	0.21
COc1cc(Cc2cnc(N)nc2N)cc(OC)c1OC [TRIMETHOPRIM]	0.26
O=c1c2ccccc2[se]n1-c1ccccc1 [EBSELEN]	1.04
Nc1ccc(S(=O)(=O)Nc2ccnn2-c2ccccc2)cc1 [SULFAPHENAZOLE]	0.21
CN(C)CCCN1c2ccccc2Sc2ccc(C(F)(F)F)cc21 [TRIFLUPROMAZINE]	1.05
C[C@H]1C[C@@H]2[C@H]([C@@H](O)C[C@@]3(C)[C@H]2CC[C@]3(O)C(=O)CO)[C@@]2(C)C=CC(=O)C=C12 [METHYLPREDNISOLONE]	0.22
COCCc1ccc(OCC(O)CNC(C)C)cc1 (centres undefined) [METOPROLOL]	0.29
C[C@H](CS)C(=O)N1CCC[C@H]1C(=O)O [CAPTOPRIL]	2.69
Clc1cccc(Cl)c1N=C1NCCN1 [CLONIDINE]	0.13
Cc1ccc(/C(=C\CN2CCCC2)c2cccc(/C=C/C(=O)O)n2)cc1 [ACRIVASTINE]	0.02

— ChEMBL document CHEMBL1134302, “Cheminformatic models to predict binding affinities to human serum albumin” (J Med Chem, 2001)
